Measured values as given in patent publication US9707233B2, “Heterocyclylamines as PI3K inhibitors” (Incyte Corporation, priority 2011, dated 2017).
Where a name gives a salt, the structure may show the parent alone.

Biological target: PI3Kδ (p110δ/p85α) (Homo sapiens (Human), UniProt O00329)
Assay: PI3Kδ scintillation proximity assay (Example A3)
Type: biochemical
Conditions: 20 μM ATP, 20 μM PIP2, 4 nM PI3Kδ; read-out: PI3Kδ SPA IC50
Experimental: [γ-^33P]ATP (10 mCi/mL) was purchased from Perkin-Elmer (Waltham, Mass.). […] PI3Kδ (p110δ/p85α) was purchased from Millipore (Bedford, Mass.). ATP, MgCl2, DTT, EDTA, MOPS and CHAPS were purchased from Sigma-Aldrich (St. Louis, Mo.). Wheat Germ Agglutinin (WGA) YSi SPA Scintillation Beads was purchased from GE healthcare life sciences (Piscataway, N.J.).
The kinase reaction was conducted in polystyrene 384-well matrix white plate from Thermo Fisher Scientific in a final volume of 25 μL. Inhibitors were first diluted serially in DMSO and added to the plate wells before the addition of other reaction components. The final concentration of DMSO in the assay was 0.5%. The PI3K assays were carried out at room temperature in 20 mM MOPS, pH 6.7, 10 mM MgCl2, 5 mM DTT and CHAPS 0.03%. Reactions were initiated by the addition of ATP, the final reaction mixture consisted of 20 μM PIP2, 20 μM ATP, 0.2 μCi [γ-^33P]ATP, 4 nM PI3Kδ. […] 25 mM EDTA, 400 μM ATP. The final concentration of SPA beads was 1.0 mg/mL. After the plate sealing, plates were shaken overnight at room temperature and centrifuged at 1800 rpm for 10 minutes, the radioactivity of the product was determined by scintillation counting on Topcount (Perkin-Elmer). IC50 determination was performed by fitting the curve of percent control activity versus the log of the inhibitor concentration using the GraphPad Prism 3.0 software.

Chain of PI3Kδ (p110δ/p85α) (O00329 whole entry): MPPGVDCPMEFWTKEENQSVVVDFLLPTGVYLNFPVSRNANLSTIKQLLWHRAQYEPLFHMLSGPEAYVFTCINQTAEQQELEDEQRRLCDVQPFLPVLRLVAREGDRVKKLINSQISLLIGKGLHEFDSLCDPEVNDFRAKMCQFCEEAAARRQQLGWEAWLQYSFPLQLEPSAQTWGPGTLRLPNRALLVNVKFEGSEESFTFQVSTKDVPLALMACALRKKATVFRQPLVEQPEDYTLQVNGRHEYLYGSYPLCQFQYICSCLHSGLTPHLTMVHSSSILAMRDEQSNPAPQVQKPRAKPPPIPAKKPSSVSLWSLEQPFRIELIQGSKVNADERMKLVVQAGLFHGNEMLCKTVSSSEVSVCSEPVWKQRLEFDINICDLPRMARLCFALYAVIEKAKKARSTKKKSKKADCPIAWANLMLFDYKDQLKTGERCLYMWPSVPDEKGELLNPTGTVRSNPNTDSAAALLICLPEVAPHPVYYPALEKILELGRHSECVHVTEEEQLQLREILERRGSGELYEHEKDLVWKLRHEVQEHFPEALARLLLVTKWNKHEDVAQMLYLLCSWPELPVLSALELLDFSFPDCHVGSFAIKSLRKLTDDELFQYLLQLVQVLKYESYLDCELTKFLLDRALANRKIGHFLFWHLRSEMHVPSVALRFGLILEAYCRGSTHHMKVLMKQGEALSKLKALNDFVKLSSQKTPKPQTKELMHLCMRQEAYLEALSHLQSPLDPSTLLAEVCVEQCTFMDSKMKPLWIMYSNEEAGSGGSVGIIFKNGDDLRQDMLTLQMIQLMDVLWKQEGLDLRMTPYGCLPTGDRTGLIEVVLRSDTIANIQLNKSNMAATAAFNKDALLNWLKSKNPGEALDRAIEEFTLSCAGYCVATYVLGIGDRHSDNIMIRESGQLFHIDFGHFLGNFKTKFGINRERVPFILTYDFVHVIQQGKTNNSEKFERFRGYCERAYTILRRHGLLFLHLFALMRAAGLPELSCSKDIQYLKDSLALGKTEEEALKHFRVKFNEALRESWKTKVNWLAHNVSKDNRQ
Chain of PI3Kδ (p110δ/p85α) (P27986 whole entry partner): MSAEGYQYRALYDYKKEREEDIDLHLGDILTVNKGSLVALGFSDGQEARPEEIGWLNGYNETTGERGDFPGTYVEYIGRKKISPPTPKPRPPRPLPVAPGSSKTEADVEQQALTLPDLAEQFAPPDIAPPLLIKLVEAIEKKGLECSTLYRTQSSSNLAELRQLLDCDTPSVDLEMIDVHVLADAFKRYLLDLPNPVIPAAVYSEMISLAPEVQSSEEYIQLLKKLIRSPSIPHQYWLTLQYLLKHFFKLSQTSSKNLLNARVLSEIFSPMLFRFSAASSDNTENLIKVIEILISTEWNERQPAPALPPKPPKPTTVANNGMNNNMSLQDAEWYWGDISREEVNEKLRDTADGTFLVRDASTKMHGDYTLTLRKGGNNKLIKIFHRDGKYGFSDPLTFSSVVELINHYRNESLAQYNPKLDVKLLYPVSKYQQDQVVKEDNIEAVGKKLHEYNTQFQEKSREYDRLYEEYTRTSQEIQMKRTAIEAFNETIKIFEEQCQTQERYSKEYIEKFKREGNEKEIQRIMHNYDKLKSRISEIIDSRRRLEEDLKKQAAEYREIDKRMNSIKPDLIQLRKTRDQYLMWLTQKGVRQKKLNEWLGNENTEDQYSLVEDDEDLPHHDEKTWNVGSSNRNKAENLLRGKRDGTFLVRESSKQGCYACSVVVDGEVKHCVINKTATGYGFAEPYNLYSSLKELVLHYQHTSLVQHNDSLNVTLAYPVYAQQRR

Row | SMILES | IC50 [nM]
1 | COc1c(C(C)n2nc(C)c3c(N)ncnc32)cc(Cl)c(C)c1-c1ccc(C(=O)N(C)C)c(F)c1 (single isomer, unassigned) [Example 21, 3′-[1-(4-Amino-3-methyl-1H-pyrazolo[3,4-d]pyrimidin-1-yl)ethyl]-5′-chloro-3-fluoro-2′-methoxy-N,N,6′-trimethylbiphenyl-4-carboxamide trifluoroacetate] | ≤ 10
2 | CCOc1c(C(C)n2nc(-c3cncc(C(=O)N(C)C)c3)c3c(N)ncnc32)cc(Cl)c(C)c1-c1ccc(C(=O)N(C)C)nc1 (racemic) [Example 62, 5-{3-[1-(4-amino-3-{5-[(dimethylamino)carbonyl]pyridin-3-yl}-1H-pyrazolo[3,4-d]pyrimidin-1-yl)ethyl]-5-chloro-2-ethoxy-6-methylphenyl}-N,N-dimethylpyridine-2-carboxamide tris(trifluoroacetate)] | ≤ 10
3 | COc1c(C(C)n2nc(C)c3c(N)ncnc32)cc(Cl)c(Cl)c1C1CN(C(C)C)C1 (single isomer, unassigned) [Example 299, 1-{1-[4,5-Dichloro-3-(1-isopropylazetidin-3-yl)-2-methoxyphenyl]ethyl}-3-methyl-1H-pyrazolo[3,4-d]pyrimidin-4-amine] | ≤ 10
4 | COc1c(C(C)n2ccc(=O)c3c(N)ncnc32)cc(Cl)c(C)c1-c1cncc(F)c1 (racemic) [Example 31, 4-Amino-8-{1-[5-chloro-3-(5-fluoropyridin-3-yl)-2-methoxy-4-methylphenyl]ethyl}pyrido[2,3-d]pyrimidin-5(8H)-one bis(trifluoroacetate)] | ≤ 10
5 | CCOc1c(C(C)n2nc(C)c3c(N)ncnc32)cc(Cl)c(F)c1C1CN(C)C1 (racemic) [Example 145, 1-{1-[5-Chloro-2-ethoxy-4-fluoro-3-(1-methylazetidin-3-yl)phenyl]ethyl}-3-methyl-1H-pyrazolo[3,4-d]pyrimidin-4-amine] | ≤ 10
6 | CNC(=O)c1ccc(-c2c(C)c(Cl)cc(C(C)n3nc(C)c4c(N)ncnc43)c2OC)cc1F (single isomer, unassigned) [Example 22, 3′-[1-(4-Amino-3-methyl-1H-pyrazolo[3,4-d]pyrimidin-1-yl)ethyl]-5′-chloro-3-fluoro-2′-methoxy-N,6′-dimethylbiphenyl-4-carboxamide trifluoroacetate] | ≤ 10
7 | CCOc1c(C(C)n2nc(-c3cn[nH]c3)c3c(N)ncnc32)cc(Cl)c(C)c1-c1ccc(C(=O)N(C)C)nc1 (racemic) [Example 48, 5-(3-{1-[4-amino-3-(1H-pyrazol-4-yl)-1H-pyrazolo[3,4-d]pyrimidin-1-yl]ethyl}-5-chloro-2-ethoxy-6-methylphenyl)-N,N-dimethylpyridine-2-carboxamide bis(trifluoroacetate)] | ≤ 10
8 | COc1c(C(C)n2nc(C)c3c(N)ncnc32)cc(Cl)c(Cl)c1C1CN(CC(C)(C)O)C1 (single isomer, unassigned) [Example 303, 1-(3-{3-[1-(4-Amino-3-methyl-1H-pyrazolo[3,4-d]pyrimidin-1-yl)ethyl]-5,6-dichloro-2-methoxyphenyl}azetidin-1-yl)-2-methylpropan-2-ol] | ≤ 10
9 | COc1c(C(C)n2nc(C)c3c(N)ncnc32)cc(Cl)c(C#N)c1C1CN(CC2CCOCC2)C1 (single isomer, unassigned) [Example 280, 4-[1-(4-Amino-3-methyl-1H-pyrazolo[3,4-d]pyrimidin-1-yl)ethyl]-6-chloro-3-methoxy-2-[1-(tetrahydro-2H-pyran-4-ylmethyl)azetidin-3-yl]benzonitrile] | ≤ 10
10 | CCOc1c(C(C)n2nc(C)c3c(N)ncnc32)cc(Cl)c(C#N)c1C1CN(CC2CCOC2)C1 (single isomer, unassigned) [Example 230, 4-[1-(4-Amino-3-methyl-1H-pyrazolo[3,4-d]pyrimidin-1-yl)ethyl]-6-chloro-3-ethoxy-2-[1-(tetrahydrofuran-3-ylmethyl)azetidin-3-yl]benzonitrile] | ≤ 10
11 | CCOc1c(C(C)n2nc(C)c3c(N)ncnc32)cc(Cl)c(C#N)c1C1CN(S(=O)(=O)C(C)C)C1 (single isomer, unassigned) [Example 250, 4-[1-(4-Amino-3-methyl-1H-pyrazolo[3,4-d]pyrimidin-1-yl)ethyl]-6-chloro-3-ethoxy-2-[1-(isopropylsulfonyl)azetidin-3-yl]benzonitrile] | ≤ 10
12 | CCOc1c(C(C)n2nc(-c3cccc(F)c3)c3c(N)ncnc32)cc(Cl)c(C)c1-c1ccc(C(=O)N(C)C)nc1 (racemic) [Example 47, 5-(3-{1-[4-amino-3-(3-fluorophenyl)-1H-pyrazolo[3,4-d]pyrimidin-1-yl]ethyl}-5-chloro-2-ethoxy-6-methylphenyl)-N,N-dimethylpyridine-2-carboxamide bis(trifluoroacetate)] | ≤ 10
13 | COc1c(C(C)n2nc(C)c3c(N)ncnc32)cc(Cl)c(C)c1-c1cnn(CCO)c1 (single isomer, unassigned) [20 (1st peak), 2-(4-(3-(1-(4-Amino-3-methyl-1H-pyrazolo[3,4-d]pyrimidin-1-yl)ethyl)-5-chloro-2-methoxy-6-methylphenyl)-1H-pyrazol-1-yl)ethanol] | ≤ 10
14 | CCOc1c(C(C)n2nc(C)c3c(N)ncnc32)cc(Cl)c(F)c1C1CN(CC)C1 (racemic) [Example 146, 1-{1-[5-Chloro-2-ethoxy-3-(1-ethylazetidin-3-yl)-4-fluorophenyl]ethyl}-3-methyl-1H-pyrazolo[3,4-d]pyrimidin-4-amine] | ≤ 10
15 | COc1c(C(C)n2ccc(=O)c3c(N)ncnc32)cc(Cl)c(C)c1-c1cccc(S(=O)(=O)N(C)C)c1 (racemic) [Example 32, 3′-[1-(4-Amino-5-oxopyrido[2,3-d]pyrimidin-8(5H)-yl)ethyl]-5′-chloro-2′-methoxy-N,N,6′-trimethylbiphenyl-3-sulfonamide bis(trifluoroacetate)] | ≤ 10
16 | COc1c(C(C)n2nc(C)c3c(N)ncnc32)cc(Cl)c(C#N)c1C1CN(CC(C)(C)O)C1 (stereo not drawn) [Example 271, 4-[1-(4-Amino-3-methyl-1H-pyrazolo[3,4-d]pyrimidin-1-yl)ethyl]-6-chloro-2-[1-(2-hydroxy-2-methylpropyl)azetidin-3-yl]-3-methoxybenzonitrile] | ≤ 10
17 | CCOc1c(C(C)n2nc(C)c3c(N)ncnc32)cc(Cl)c(C#N)c1C1CN(S(=O)(=O)C2CC2)C1 (single isomer, unassigned) [Example 251, 4-[1-(4-Amino-3-methyl-1H-pyrazolo[3,4-d]pyrimidin-1-yl)ethyl]-6-chloro-2-[1-(cyclopropylsulfonyl)azetidin-3-yl]-3-ethoxybenzonitrile] | ≤ 10
18 | CCOc1c(C(C)n2nc(C)c3c(N)ncnc32)cc(Cl)c(C#N)c1C1CN(C(=O)CC)C1 (single isomer, unassigned) [Example 243, 4-[1-(4-Amino-3-methyl-1H-pyrazolo[3,4-d]pyrimidin-1-yl)ethyl]-6-chloro-3-ethoxy-2-(1-propionylazetidin-3-yl)benzonitrile] | ≤ 10
19 | COc1c(C(C)n2nc(C(F)F)c3c(N)ncnc32)cc(C#N)c(F)c1C1CN(CCO)C1 (racemic) [Example 78, 5-{1-[4-Amino-3-(difluoromethyl)-1H-pyrazolo[3,4-d]pyrimidin-1-yl]ethyl}-2-fluoro-3-[1-(2-hydroxyethyl)azetidin-3-yl]-4-methoxybenzonitrile] | ≤ 10
20 | COc1c(C(C)n2nc(C)c3c(N)ncnc32)cc(Cl)c(C#N)c1C1CN(CC(C)C)C1 (single isomer, unassigned) [Example 265, 4-[1-(4-Amino-3-methyl-1H-pyrazolo[3,4-d]pyrimidin-1-yl)ethyl]-6-chloro-2-(1-isobutylazetidin-3-yl)-3-methoxybenzonitrile] | ≤ 10
21 | COc1c(C(C)n2nc(C)c3c(N)ncnc32)cc(Cl)c(C)c1-c1cncc(S(C)(=O)=O)c1 (single isomer, unassigned) [Example 172, 1-(1-(5-chloro-2-methoxy-4-methyl-3-(5-(methylsulfonyl)pyridin-3-yl)phenyl)ethyl)-3-methyl-1H-pyrazolo[3,4-d]pyrimidin-4-amine] | ≤ 10
22 | CCOc1c(C(C)n2nc(C)c3c(N)ncnc32)cc(C)c(C#N)c1C1CN(C(=O)C(C)(C)O)C1 (single isomer, unassigned) [Example 322, 4-[1-(4-amino-3-methyl-1H-pyrazolo[3,4-d]pyrimidin-1-yl)ethyl]-3-ethoxy-2-[1-(2-hydroxy-2-methylpropanoyl)azetidin-3-yl]-6-methylbenzonitrile] | ≤ 10
23 | COc1c(C(C)n2ccc(=O)c3c(N)ncnc32)cc(Cl)c(C)c1-c1ccc(C(=O)N(C)C)nc1 (single isomer, unassigned) [25 (1st peak), 5-{3-[1-(4-Amino-5-oxopyrido[2,3-d]pyrimidin-8(5H)-yl)ethyl]-5-chloro-2-methoxy-6-methylphenyl}-N,N-dimethylpyridine-2-carboxamide] | 200 to 500
24 | CCOc1c(C(C)n2nc(C)c3c(N)ncnc32)cc(Cl)c(C#N)c1C1CN(C2CCC2)C1 (single isomer, unassigned) [Example 218, 4-[1-(4-Amino-3-methyl-1H-pyrazolo[3,4-d]pyrimidin-1-yl)ethyl]-6-chloro-2-(1-cyclobutylazetidin-3-yl)-3-ethoxybenzonitrile] | ≤ 10
